From patent US10160748B2 (AbbVie Inc., priority 2015, dated 2018) come the findings set out here.

The term IC50 denotes the concentration that inhibits the measured activity by half.

This experiment concerns the target TNFα trimer (Homo sapiens, UniProt P01375). Description: TNFα FP Competitive Binding Assay. As to conditions: FP binding assay; 20 nM TNFα trimer, 1 nM OregonGreen488 probe; read-out: TNF IC50. How it is done: TNFα FP Competitive Binding Assay
• 1. Assay Buffer: Prepare 1× Assay Buffer (Water with 47 mM HEPES, 47 mM NaCl, 0.9 mM EDTA, 0.0071% Triton X-100) by adding 25 mL of 1 M HEPES, 5 mL of 5 M NaCl, 1 mL of 0.5 M EDTA, and 375 μL of a 10% Triton X-100 stock to a fresh 500 mL bottle of water. • 2. Assay Mixture: Prepare fresh Assay Mixture containing 20 nM TNFα trimer (60 nM protein) and 1 nM 2′,7′-difluoro-3′,6′-dihydroxy-N-(2-(2-(2-((4-(isoquinolin-8-yl)-3-(4-(isoquinolin-8-yl)phenethoxy)benzyl)oxy)ethoxy)ethoxy)ethyl)-3-oxo-3H-spiro[isobenzofuran-1,9′-xanthene]-5-carboxamide probe in 1× Assay Buffer. Compound Plate Preparation Manual 12-Point 1:3 Dilution Plates: (384 Well Polypropylene Plates)
Top concentration of compounds, 10 mM in DMSO, dispensed in rows A-O in columns 1 and 13. Compounds are serially diluted 1:3 with DMSO in columns 2-12 or 14-24 using a 16-channel Matrix pipettor. Plates stored at −20° C.
Discovery Preps 12-Point 1:3 Dilution Plates: (384 Well Assay Plates)
Top concentration, 5 mM in DMSO, of compounds placed in rows A-O in columns 1 and 13. Compounds are serially diluted 1:3 with DMSO in columns 2-12 or 14-24. Compound solutions are dispensed into replicate assay plates at 410 nL per well. Plates stored at 4° C.
TNFα FP Competitive Binding Assay Protocol
• 1. Compound plates warmed to rt. • 2. Fresh Assay Mixture is prepared. • 3. Assay Mixture (20 μL) is dispensed each well of 384 assay plates using a Thermo Multidrop Combi or 16-channel Matrix pipettor. If Manual 12-point 1:3 Dilution Plates are to be tested, Assay Mix is dispensed into empty plates. Discovery Preps 12-point 1:3 Dilution Plates already contain 410 nL compound solution in DMSO. • 4. For Manual 12-point 1:3 Dilution Plates, 0.7 μL is manually transferred using a 16-channel Matrix pipettor to replicate assay plates containing 20 μL Assay Mixture for a final top compound concentration of 338 μM (3.4% DMSO). • 5. For Discovery Preps 12-point 1:3 Dilution Plates, 20 μL Assay Mixture added the 410 nL compound solution already in the plates yields a final top compound concentration of 100 μM (2.0% DMSO). • 6. Background subtraction controls are wells P1-P8 containing only Assay Buffer. The low % inhibition controls are wells P9-P16 containing only Assay Mix. The high % inhibition are wells P17-P24 containing only 1 nM 2′,7′-difluoro-3′,6′-dihydroxy-N-(2-(2-(2-((4-(isoquinolin-8-yl)-3-(4-(isoquinolin-8-yl)phenethoxy)benzyl)oxy)ethoxy)ethoxy)ethyl)-3-oxo-3H-spiro[isobenzofuran-1,9′-xanthene]-5-carboxamide probe in 1× Assay Buffer. • 7. Plates are incubated at rt for 18-24 h in 37° C. incubator (CO2 is off). • 8. Prior to reading the assay, the plates are placed in a dark cabinet to equilibrate at rt for one hour. • 9. Background-subtracted fluorescence polarization (mP) is measured using a PerkinElmer Envision plate reader. • 10. Raw data is entered into Assay Explorer and dose-response curves are generated using a variable slope curve. Supplies, Materials, and Reagents

Sequence of TNFα trimer (P01375 77-233 limits assumed): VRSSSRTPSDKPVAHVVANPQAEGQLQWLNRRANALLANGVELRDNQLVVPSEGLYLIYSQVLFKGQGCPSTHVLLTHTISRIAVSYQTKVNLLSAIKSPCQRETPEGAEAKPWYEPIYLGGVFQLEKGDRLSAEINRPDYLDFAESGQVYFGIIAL

Turning to `CC(Nc1ncc(-c2ccc3c(=O)n(C)n(Cc4ccccc4OC(F)F)c3c2)cn1)C(N)=O` (stereo not shown) [Example 10.4], the IC50 was in the range of 1000 to 10000 nM.

In the case of `Cc1ccc(OC(F)F)c(Cn2c3cc(-c4cnc(N5CCN(C(=O)COC(=O)[C@@H](N)C(C)C)[C@H](C)C5)nc4)ccc3c(=O)n2C)c1` [Example 14.14], the IC50 is under 1000 nM.

As to `Cn1c(=O)c2cc(F)c(-c3cnc(C(C)(C)O)nc3)cc2n1Cc1cc(Cn2cncn2)ccc1OC(F)F` [Example 26.4], the IC50 was under 1000 nM.

Take `CC(=O)N1CCN(c2ncc(-c3ccc4c(=O)n(C)n(Cc5cc(C)ccc5OC(F)F)c4c3)cn2)[C@@H](C)C1` [Example 22.2]: the 50% inhibitory concentration (IC50) is under 1000 nM.

On to `COCCCNc1ncc(-c2ccc3c(=O)n(C)n(Cc4ccccc4OC(F)F)c3c2)cn1` [Example 2.22], for which the IC50 fell in the range of 1000 to 10000 nM.

On to `Cc1ccc(OC(F)F)c(Cn2c3cc(-c4cnc(N5CCN(C(=O)CN)[C@H](C)C5)nc4)ccc3c(=O)n2C)c1` [Example 14.10], for which the IC50 is under 1000 nM.

With `Cc1ccc(Cl)c(Cn2c3nc(-c4cnc(C(C)(C)O)nc4C)ccc3c(=O)n2C)c1` [Example 99, 1-(2-Chloro-5-methylbenzyl)-6-(2-(2-hydroxypropan-2-yl)-4-methylpyrimidin-5-yl)-2-methyl-1,2-dihydro-3H-pyrazolo[3,4-b]pyridin-3-one], the IC50 was under 1000 nM.

For the compound `CN(C)c1ncc(-c2ccc3c(=O)n(C)n(Cc4ccccc4OC(F)F)c3c2)cn1` [Example 10.15], the IC50 is 1000 to 10000 nM.

Turning to `Cn1c(=O)c2ccc(-c3ccnc(N4CCOCC4)c3)cc2n1Cc1cccc(F)c1` [Example 11.1], the IC50 is over 10000 nM.

For `Cn1c(=O)c2ccc(-c3cnn(C4CCOCC4)c3)cc2n1Cc1cccc(F)c1` [Example 11.2], the IC50 was over 10000 nM.

Regarding `C[C@@H]1C[C@@H](O)CCN1c1ncc(-c2ccc3c(=O)n(C)n(Cc4ccccc4OC(F)F)c3c2)cn1` [Example 19, 1-(2-(Difluoromethoxy)benzyl)-6-(2-((2R,4S)-4-hydroxy-2-methylpiperidin-1-yl)pyrimidin-5-yl)-2-methyl-1H-indazol-3(2H)-one], the IC50 was under 1000 nM.

As to `Cc1ccc(OC(F)F)c(Cn2c3cc(-c4cnc(C(C)(C)O)nc4)c(F)cc3c(=O)n2C)c1` [Example 17.1], the IC50 was under 1000 nM.

Regarding `Cc1cccc([C@H](C)n2c3cc(-c4cnc(N5CCN(C(=O)CO)[C@H](C)C5)nc4)ccc3c(=O)n2C)c1` (single isomer, unassigned) [Example 117], the IC50 is under 1000 nM.

Consider `Cc1ccc(OC(F)F)c(Cn2c3cc(-c4cnc(N5CCN(C(=O)CO)[C@H](C)C5)nc4)ccc3c(=O)n2C)n1` [Example 76, (R)-1-((3-(Difluoromethoxy)-6-methylpyridin-2-yl)methyl)-6-(2-(4-(2-hydroxyacetyl)-3-methylpiperazin-1-yl)pyrimidin-5-yl)-2-methyl-1H-indazol-3(2H)-one], for which the concentration for half-maximal inhibition (IC50) is under 1000 nM.

With `CC(=O)NCc1ccc(OC(F)F)c(Cn2c3cc(-c4cnc(N5CCN(C(C)=O)[C@H](C)C5)nc4)ccc3c(=O)n2C)c1` [Example 27.1], the IC50 was in the range of 1000 to 10000 nM.

With `C[C@@H]1CN(C(=O)CO)CCN1c1ncc(-c2cc3c(cc2F)c(=O)n(C)n3Cc2ccccc2OC(F)F)cn1` [Example 126, (R)-1-(2-(Difluoromethoxy)benzyl)-5-fluoro-6-(2-(4-(2-hydroxyacetyl)-2-methylpiperazin-1-yl)pyrimidin-5-yl)-2-methyl-1H-indazol-3(2H)-one], the IC50 was under 1000 nM.

`Cn1c(=O)c2ccc(-c3cc(N4CCOCC4)ncc3Cl)cc2n1Cc1ccccc1OC(F)F` [Example 4.1]: the concentration for half-maximal inhibition (IC50) is over 10000 nM.

With `Cn1c(=O)c2ccc(-c3cnc(N4CCN5C(=O)NC[C@H]5C4)nc3)cc2n1Cc1ccccc1OC(F)F` (single isomer, unassigned) [Example 7], the IC50 is under 1000 nM.

Regarding `C[C@@H]1CN(c2ncc(-c3ccc4c(=O)n(C)n(Cc5ccccc5Cl)c4n3)cn2)CCN1C(=O)CO` [Example 23.1], the IC50 was under 1000 nM.

For `Cc1ccc(OC(F)F)c(Cn2c3cc(-c4cnc(N5CCN(C(=O)[C@H](C)N)[C@@H](C)C5)nc4)ccc3c(=O)n2C)c1` [Example 14.6], the IC50 is under 1000 nM.

Take `Cn1c(=O)c2ccc(-c3cnc(N4CCN5C(=O)NC[C@H]5C4)nc3)cc2n1Cc1cc(CO)ccc1OC(F)F` [Example 18, (S)-7-(5-(1-(2-(Difluoromethoxy)-5-(hydroxymethyl)benzyl)-2-methyl-3-oxo-2,3-dihydro-1H-indazol-6-yl)pyrimidin-2-yl)hexahydroimidazo[1,5-a]pyrazin-3(2H)-one]: the IC50 is under 1000 nM.

On to `Cn1c(=O)c2ccc(-c3cnc(N4CCNC(=O)C4)nc3)cc2n1Cc1c(Cl)cccc1Cl` [Example 8.2], for which the IC50 lay in the range of 1000 to 10000 nM.

In the case of `Cc1ccc(OC(F)F)c(Cn2c3cc(-c4cnc(N5CCC[C@@H]5CO)nc4)ccc3c(=O)n2C)c1` [Example 22.8], the IC50 lay within 1000 to 10000 nM.

As for `Cc1c(-c2cnc(N3CCN(C(=O)CO)[C@H](C)C3)nc2)ccc2c(=O)n(C)n(Cc3ccccc3OC(F)F)c12` [Example 24.12], the IC50 is under 1000 nM.

In the case of `Cn1c(=O)c2cc(F)c(-c3cnc(C(C)(C)O)nc3)cc2n1Cc1ccccc1OC(F)F` [Example 40, 1-(2-(Difluoromethoxy)benzyl)-5-fluoro-6-(2-(2-hydroxypropan-2-yl)pyrimidin-5-yl)-2-methyl-1H-indazol-3(2H)-one], the IC50 fell in the range of 1000 to 10000 nM.

In the case of `CC(C)[C@H](N)C(=O)OCc1ccc(OC(F)F)c(Cn2c3cc(-c4cnc(N5CCN6C(=O)OC[C@@H]6C5)nc4)ccc3c(=O)n2C)c1` [Example 14.4], the 50% inhibitory concentration (IC50) fell in the range of 1000 to 10000 nM.

For `Cn1c(=O)c2ccc(-c3cnc(N4CC5(CC(C(=O)O)C5)C4)nc3)cc2n1Cc1ccccc1OC(F)F` [Example 2.17], the IC50 lay within 1000 to 10000 nM.

Take `Cn1c(=O)c2ncc(-c3cnc(N4CCOCC4)nc3)cc2n1Cc1ccccc1OC(F)F` [Example 14, 1-(2-(Difluoromethoxy)benzyl)-2-methyl-6-(2-morpholinopyrimidin-5-yl)-1H-pyrazolo[4,3-b]pyridin-3(2H)-one]: the IC50 is over 10000 nM.

Turning to `Cn1c(=O)c2ccc(-c3cnc(N4CCN5C(=O)N(CCO)C[C@H]5C4)nc3)cc2n1Cc1ccccc1OC(F)F` [Example 35, (R)-7-(5-(1-(2-(Difluoromethoxy)benzyl)-2-methyl-3-oxo-2,3-dihydro-1H-indazol-6-yl)pyrimidin-2-yl)-2-(2-hydroxyethyl)hexahydroimidazo[1,5-a]pyrazin-3(2H)-one], the IC50 is under 1000 nM.

For `Cc1ccc(OC(F)F)c(Cn2c3cc(-c4cnc(N5CCN(C(=O)C(O)CN)[C@H](C)C5)nc4)ccc3c(=O)n2C)c1` (stereo partly shown) [Example 14.9], the IC50 was under 1000 nM.

In the case of `Cn1c(=O)c2ccc(-c3cnc(N4CCOCC4)nc3)nc2n1Cc1ccccc1OC(F)F` [Example 15, 1-(2-(Difluoromethoxy)benzyl)-2-methyl-6-(2-morpholinopyrimidin-5-yl)-1H-pyrazolo[3,4-b]pyridin-3(2H)-one], the 50% inhibitory concentration (IC50) lay within 1000 to 10000 nM.

As to `CC(=O)N1CCN(c2ncc(-c3ccc4c(=O)n(C)n(Cc5cc(C)ccc5OC(F)F)c4c3)c(C)n2)[C@H](C)C1` [Example 22.14], the half-maximal inhibitory concentration (IC50) was under 1000 nM.

For `Cn1c(=O)c2ccc(-c3ccnc(N4CCOCC4)c3)cc2n1Cc1ccccc1OC(F)F` [Example 5.6], the IC50 is over 10000 nM.

On to `Cc1ccc(C(F)(F)F)c(Cn2c3cc(-c4cnc(N5CCN6C(=O)NC[C@H]6C5)nc4)ccc3c(=O)n2C)n1` [Example 19.2], for which the IC50 was under 1000 nM.
